Test results as given in patent US20250127752A1, “REDUCED REBOUND EFFECTS IN SUBJECTS TREATED FOR OVERWEIGHT OR OBESITY” (Empros Pharma AB, priority 2021, published 2025).
Where two headings read alike, the source gives them in different places.

Tests used:
[1] = cited from earlier work; for Additional weight loss relative to placebo: at one year, on average; for Placebo adjusted reduction of body weight: oral administration for 6 months
[2] = Pre-dose (trough) plasma level of orlistat and acarbose at steady state, week 26; format: in vivo, human; details: steady state week 26, patients on active treatment
[3] = cited from earlier work
[4] = oral, conventional dosage form; cited from earlier work
[5] = cited from earlier work; remark: listed apart in the source

For C[C@H]1CNCCc2ccc(Cl)cc21 [lorcaserin], the “Additional weight loss relative to placebo” value [1] is given as ~3%, the “Body weight decrease more than placebo” value ([1]; human, in vivo) is given as “about 3.2 kg” and the “Body weight decrease more than placebo, of initial body weight” value ([1]; human, in vivo) is given as “about 3.2%”.
For C[C@H]1O[C@H](O[C@H]2[C@H](O)[C@@H](O)[C@@H](O[C@H]3[C@H](O)[C@@H](O)C(O)O[C@@H]3CO)O[C@@H]2CO)[C@H](O)[C@@H](O)[C@@H]1N[C@H]1C=C(CO)[C@@H](O)[C@H](O)[C@H]1O (stereo partly drawn) [acarbose, O-4,6-Dideoxy-4-[[(1S,4R,5S,6S)-4,5,6-trihydroxy-3-(hydroxymethyl)cyclohex-2-enyl]amino]-α-D-glucopyranosyl-(1→4)-O-α-D-gluco-pyranosyl-(1→4)-D-glucopyranose], the “Placebo adjusted reduction of body weight” value [1] is listed as “approx. 0.5%” and the “Patients in whom low plasma levels were measured” value [2] is listed as 3 of 75.
In the case of CCCCCCCCCCC[C@@H](C[C@@H]1OC(=O)[C@H]1CCCCCC)OC(=O)[C@H](CC(C)C)NC=O [orlistat, (S)—((S)-1-((2S,3S)-3-Hexyl-4-oxooxetan-2-yl)tridecan-2-yl) 2-formamido-4-methylpentanoate], the “Additional weight loss relative to placebo” value [1] is given as ~3%, the “Approximate relative weight loss” value ([1]; conventional dosage forms) is given as 2-3% and the “Placebo adjusted reduction of body weight” value [1] is given as 2-3%. The “Relative weight loss, best case scenario” value ([1]; versus placebo 6%) was 10%, the “Solubility in water” value [3] was “practically insoluble in water” and the Water solubility [3] was “less than 0.001 g/ml”. For the same compound, the “Patients in whom low plasma levels were measured” value [2] was 27 of 75, the “Fraction of the dose absorbed” value [4] was < 3% and the Plasma exposure [4] was < 5 ng/mL. The “Patients complaining about GI side-effects (diarrhea, oily spotting, fecal urgency)” value ([5]; clinical trials, conventional dosage form) was ≥ 25%, the “Participants reporting faecal incontinence” value ([5]; similar 6-month trial) was 5% and the “Participants reporting faecal incontinence” value ([5]; trials of longer duration) was “approximately 18%”.
In the case of OCCN1C[C@H](O)[C@@H](O)[C@H](O)[C@H]1CO [Miglitol], the “Fraction of the dose absorbed” value [4] is listed as 100%.
